In paper PMC6193987, “Metagenomics reveals functional synergy and novel polysaccharide utilization loci in the Castor canadensis fecal microbiome” (The ISME Journal, 2018):

How the values were obtained:
12_H03-13 = assay: fluorogenic glycosidase kinetics; format: biochemical, uncultured bacterium (Castor canadensis fecal metagenome); conditions: GH43 domain site
Text: fluorogenic glycosidase kinetics on 12_H03-13

12_J03-18 = assay: fluorogenic glycosidase kinetics; format: biochemical, uncultured bacterium (Castor canadensis fecal metagenome)
Text: fluorogenic glycosidase kinetics on 12_J03-18

Km (12_H03-13): 190 ± 30 µM | Km (12_H03-13; GH8 catalytic acid residue mutated): 140 ± 10 µM | Km (12_J03-18): 480 ± 60 µM
SMILES: Cc1cc(=O)oc2cc(O[C@@H]3OC[C@@H](O)[C@H](O)[C@H]3O)c(Cl)cc12 [6-chloro-4-methylumbelliferyl β-D-xyloside]
